Reference: ChEMBL document CHEMBL5518215, “Unlocking Antibacterial Potential: Key-Site-Based Regulation of Antibacterial Spectrum of Peptides” (J Med Chem, 2024)
Active and inactive are the calls of the source. The rule behind the calls is not given here.

Key:
Escherichia coli [1] = assay: Effect on inner membrane fluidity in Escherichia coli 25922 assessed as reduction in intracellular membrane fluidity by measuring fluorescence intensity of Laurdan-GP after 60 mins by spectrophotometry; format: functional, organism-based
Staphylococcus aureus [2] = assay: Effect on inner membrane fluidity in Staphylococcus aureus 29213 assessed as reduction in intracellular membrane fluidity by measuring fluorescence intensity of Laurdan-GP after 60 mins by spectrophotometry; format: functional, organism-based
Acinetobacter baumannii = assay: Antimicrobial activity against Acinetobacter baumannii 1.6769 assessed as bacterial killing measured after 16 hrs incubation; format: functional
Cell membrane [3] = assay: Induction of cytoplasmic membrane disruption in Staphylococcus aureus 29213 assessed as increase in fluorescence intensity measured upto 30 mins by DiSC3-5 probe based assay; format: cell membranes; details: dose 2-64 µM
Escherichia coli [4] = assay: Antimicrobial activity against Escherichia coli 25922 assessed as absence bacterial growth measured after 18 to 24 hrs incubation in presence of 50% serum by NCCLS method; format: functional; details: time 18-24 hrs
[5] = Hemolytic activity in human RBC at effective concentration at 128 uM measured after 1 hr by microplate reader relative to control; format: toxicity, cell-based, Erythrocyte; details: human red blood cells (erythrocytes), read-out: Activity
DNA = assay: Binding affinity to DNA in Escherichia coli 25922 incubated for 1 hr by electrophoresis; format: nucleic-acid assay
Escherichia coli [6] = assay: Antibacterial activity against Escherichia coli 25922 assessed as absence bacterial growth measured after 4 hrs treated with H2O2; format: functional
Escherichia coli [7] = assay: Antimicrobial activity against Escherichia coli 25922 assessed as bacterial killing measured after 16 hrs incubation; format: functional
Cell membrane [8] = assay: Induction of membrane disruption in Staphylococcus aureus 29213 assessed as increase in extracellular ATP level at 4 to 32 uM measured after 1 hr; format: cell membranes; details: dose 4-32 µM
Staphylococcus aureus [9] = assay: Induction of morphological changes in Staphylococcus aureus 29213 assessed as loose distribution of cellular contents by using transmission electron microscopy; format: functional, organism-based
Cell membrane [10] = assay: Induction of membrane disruption in Escherichia coli 25922 assessed as increase in extracellular ATP level at 4 to 32 uM measured after 1 hr; format: cell membranes; details: dose 4-32 µM
Erythrocyte = assay: Hemolytic activity in human RBC at effective concentration measured after 1 hr by microplate reader analysis; format: toxicity, cell-based
[11] = Cytotoxicity against human HEK-293T cells assessed as cell survival rate measured after 8 hrs by MTT assay; format: toxicity, cell-based
Escherichia coli [12] = assay: Antibacterial activity against Escherichia coli 25922 assessed as absence bacterial growth measured after 18 to 24 hrs incubation at pH 4 by NCCLS method; format: functional; details: time 18-24 hrs
Bacillus cereus = assay: Antimicrobial activity against Bacillus cereus 1.932 assessed as bacterial killing measured after 16 hrs incubation; format: functional
Escherichia coli [13] = assay: Antimicrobial activity against Escherichia coli 25922 assessed as absence bacterial growth measured after 18 to 24 hrs incubation in presence of KCl by NCCLS method; format: functional; details: time 18-24 hrs
Listeria monocytogenes = assay: Antimicrobial activity against Listeria monocytogenes 1.10753 assessed as bacterial killing measured after 16 hrs incubation; format: functional
Escherichia coli [14] = assay: Antibacterial activity against Escherichia coli 25922 assessed as absence bacterial growth measured after 12 hrs treated with H2O2; format: functional
Staphylococcus aureus [15] = assay: Antibacterial activity against Staphylococcus aureus 29213 assessed as bactericidal rate by measuring reduction in bacterial count at 1 times MBC concentration measured at 15 secs by time-kill kinetic assay; format: functional; details: time 15 sec; 15 s
Staphylococcus aureus [16] = assay: Induction of morphological changes in Staphylococcus aureus 29213 assessed as cavity between cell wall and cytoplasmic membrane by using transmission electron microscopy; format: functional, organism-based
Salmonella typhimurium = assay: Antimicrobial activity against Salmonella typhimurium C7731 assessed as bacterial killing measured after 16 hrs incubation; format: functional, Salmonella enterica subsp. enterica serovar Typhimurium; details: Salmonella enterica
Escherichia coli [17] = assay: Antibacterial activity against Escherichia coli 25922 assessed as absence bacterial growth measured after 8 hrs treated with H2O2; format: functional
Escherichia coli [18] = assay: Antimicrobial activity against Escherichia coli 25922 assessed as absence bacterial growth measured after 18 to 24 hrs incubation in presence of NaCl by NCCLS method; format: functional; details: time 18-24 hrs
Cell membrane [19] = assay: Induction of cytoplasmic membrane disruption in Escherichia coli 25922 assessed as increase in fluorescence intensity measured upto 30 mins by DiSC3-5 probe based assay; format: cell membranes; details: dose 2-64 µM
Enterococcus faecalis = assay: Antimicrobial activity against Enterococcus faecalis 29212 assessed as absence bacterial growth measured after 18 to 24 hrs incubation by NCCLS method; format: functional; details: time 18-24 hrs
[20] = system: Staphylococcus epidermidis; assay: Antimicrobial activity against Staphylococcus epidermidis 12228 assessed as absence bacterial growth measured after 18 to 24 hrs incubation by NCCLS method; format: functional; details: time 18-24 hrs
Escherichia coli [21] = assay: Antimicrobial activity against Escherichia coli 25922 assessed as absence bacterial growth measured after 18 to 24 hrs incubation in presence of ZnCl2 by NCCLS method; format: functional; details: time 18-24 hrs
Escherichia coli [22] = assay: Antimicrobial activity against Escherichia coli 25922 assessed as absence bacterial growth measured after 18 to 24 hrs incubation in presence of NH4Cl by NCCLS method; format: functional; details: time 18-24 hrs
Staphylococcus aureus [23] = assay: Antimicrobial activity against Methicillin-resistant Staphylococcus aureus 43300 assessed as absence bacterial growth measured after 18 to 24 hrs incubation by NCCLS method; format: functional; details: time 18-24 hrs
Escherichia coli [24] = assay: Antibacterial activity against Escherichia coli 25922 assessed as absence bacterial growth measured after 18 to 24 hrs incubation at pH 6 by NCCLS method; format: functional; details: time 18-24 hrs
Escherichia coli [25] = assay: Induction of ROS production in mid-log phase Escherichia coli 25922 assessed as fluorescence intensity at 1 to 64 uM by DCFH-DA assay; format: functional, organism-based; details: dose 1-64 µM
[26] = Cytotoxicity against mouse RAW264.7 cells assessed as cell survival rate measured after 8 hrs by MTT assay; format: toxicity, cell-based
Pseudomonas aeruginosa = assay: Antimicrobial activity against Pseudomonas aeruginosa 27853 assessed as bacterial killing measured after 16 hrs incubation; format: functional

H-GKLWLKAGKLWLKGGKLWLKG-NH2
Activity (Escherichia coli [1]): Active | Activity (Staphylococcus aureus [2]): Active | MBC (Acinetobacter baumannii): 2 µM | Activity (Cell membrane [3]): Dose-Dependent Effect | MIC (Escherichia coli [4]): > 32 µM | hemolysis at 1 h, 128 µM [5]: < 10% | Activity (DNA): Active | MIC (Escherichia coli [6]): 2 µM | MBC (Escherichia coli [7]): 2 µM | Activity (Cell membrane [8]): Active | Activity (Staphylococcus aureus [9]): Active | Activity (Cell membrane [10]): Active | HC10 (Erythrocyte): > 128 µM | IC50 at 8 h [11]: > 64 µM | MIC (Escherichia coli [12]): > 64 µM | MBC (Bacillus cereus): 2 µM | MIC (Escherichia coli [13]): 2 µM | MBC (Listeria monocytogenes): > 32 µM | MIC (Escherichia coli [14]): 4 µM | inhibition (INH) (Staphylococcus aureus [15]): 99.99% | Activity (Staphylococcus aureus [16]): Active | MBC (Salmonella typhimurium): 32 µM | MIC (Escherichia coli [17]): 2 µM | MIC (Escherichia coli [18]): 16 µM | Activity (Cell membrane [19]): Dose-Dependent Effect | MIC (Enterococcus faecalis): 4 µM | MIC [20]: 4 µM | MIC (Escherichia coli [21]): 2 µM | MIC (Escherichia coli [22]): 2 µM | MIC (Staphylococcus aureus [23]): 4 µM | MIC (Escherichia coli [24]): 2 µM | Activity (Escherichia coli [25]): Active | IC50 at 8 h [26]: > 64 µM | MBC (Pseudomonas aeruginosa): 8 µM
